Reference: patent publication US8497240B2 (priority 2006, dated 2013)
Where “and” joins values, the source holds several entries; their conditions need not be identical. Equal values may be shown once. Read-outs that look alike come from different tables or passages of the source.

Tests used:
[1] = format: in vivo, NIH/Swiss mice
Description: (§1) In FIG. 3A, bars represent mean±sd, n=6-10. […] Gavage (1.5 g/kg) was given at t=0, Sample was taken at t=30 min. […] In FIG. 3B, points represent mean±sem, n=8-15.
Peptide was injected IP at t=−5 minutes into 4-hour fasted NIH/Swiss female mice. […] In FIG. 17 points represent mean+/−sem. […] Samples were taken at t=60, t=120 and t=180.

[2] = format: in vivo, NIH/Swiss mice; details: 80 nmol/kg, AUC240
Description: as §1
Points represent mean±sem.

| SMILES | OGTT/GL (%) ([1]; 30 nmol/kg) | Basal Glucose Lowering at Peptide Conc. of 80 nmol/kg [2] | OGTT/GL (%) ([1]; 250 nmol/kg) | Basal Gluc. Low. 80 nmol/Kg [2] |
| --- | --- | --- | --- | --- |
| CC[C@H](C)[C@H](NC(=O)[C@H](CO)NC(=O)[C@H](Cc1ccc(O)cc1)NC(=O)[C@H](CC(=O)O)NC(=O)[C@H](CO)NC(=O)[C@@H](NC(=O)[C@H](Cc1ccccc1)NC(=O)[C@@H](NC(=O)CNC(=O)[C@H](CC(=O)O)NC(=O)[C@H](CO)NC(=O)[C@@H](N)Cc1ccc(O)cc1)[C@@H](C)O)[C@@H](C)CC)C(=O)N[C@@H](C)C(=O)N[C@@H](CCSC)C(=O)N[C@@H](CC(=O)O)C(=O)N[C@@H](CCCCN)C(=O)N[C@H](C(=O)N[C@@H](Cc1c[nH]cn1)C(=O)N[C@@H](CCC(N)=O)C(=O)N[C@@H](CCC(N)=O)C(=O)N[C@@H](CC(=O)O)C(=O)N[C@@H](Cc1ccccc1)C(=O)N[C@H](C(=O)N[C@@H](CC(N)=O)C(=O)N[C@@H](Cc1c[nH]c2ccccc12)C(=O)N[C@@H](CC(C)C)C(=O)N[C@@H](CC(C)C)C(=O)N[C@@H](C)C(=O)N[C@@H](CCC(N)=O)C(=O)N[C@@H](CCCCN)C(=O)NCCC(=O)N1CCC[C@H]1C(=O)N[C@@H](CO)C(=O)N[C@@H](CO)C(=O)NCC(=O)N[C@@H](C)C(=O)N1CCC[C@H]1C(=O)N1CCC[C@H]1C(=O)N1CCC[C@H]1C(=O)N[C@@H](CO)C(N)=O)C(C)C)[C@@H](C)CC [Compound 0601GIP4395] | −11, 30% | −0%, AUC240 |  |  |
| CC[C@H](C)[C@H](NC(=O)[C@H](CO)NC(=O)[C@H](Cc1ccc(O)cc1)NC(=O)[C@H](CC(=O)O)NC(=O)[C@H](CO)NC(=O)[C@@H](NC(=O)[C@H](Cc1ccccc1)NC(=O)[C@@H](NC(=O)CNC(=O)[C@H](CCC(=O)O)NC(=O)[C@@H](C)NC(=O)[C@@H](N)Cc1ccc(O)cc1)[C@@H](C)O)[C@@H](C)CC)C(=O)N[C@@H](C)C(=O)N[C@@H](CCSC)C(=O)N[C@@H](CC(=O)O)C(=O)N[C@@H](CCCCN)C(=O)N[C@H](C(=O)N[C@@H](Cc1c[nH]cn1)C(=O)N[C@@H](CCC(N)=O)C(=O)N[C@@H](CCC(N)=O)C(=O)N[C@@H](CC(=O)O)C(=O)N[C@@H](Cc1ccccc1)C(=O)N[C@H](C(=O)N[C@@H](CC(N)=O)C(=O)N[C@@H](Cc1c[nH]c2ccccc12)C(=O)N[C@@H](CC(C)C)C(=O)N[C@@H](CC(C)C)C(=O)N[C@@H](C)C(=O)N[C@@H](CCC(N)=O)C(=O)N[C@@H](CCCCN)C(=O)N[C@H](C(=O)N[C@@H](CO)C(=O)N1CCC[C@H]1C(=O)N1CCC[C@H]1C(=O)N1CCC[C@H]1C(N)=O)[C@@H](C)O)C(C)C)[C@@H](C)CC [0601GIP4345] | −14 @ 30 nmol/kg % | −11%, AUC240 | −25 @ 250 nmol/kg, % |  |
| CC[C@H](C)[C@H](NC(=O)[C@H](CO)NC(=O)[C@H](Cc1ccc(O)cc1)NC(=O)[C@H](CC(=O)O)NC(=O)[C@H](CO)NC(=O)[C@@H](NC(=O)[C@H](Cc1ccccc1)NC(=O)[C@@H](NC(=O)CNC(=O)[C@H](CCC(=O)O)NC(=O)[C@@H](C)NC(=O)[C@@H](N)Cc1ccc(O)cc1)[C@@H](C)O)[C@@H](C)CC)C(=O)N[C@@H](C)C(=O)N[C@@H](CCSC)C(=O)N[C@@H](CC(=O)O)C(=O)N[C@@H](CCCCN)C(=O)N[C@H](C(=O)N[C@@H](Cc1c[nH]cn1)C(=O)N[C@@H](CCC(N)=O)C(=O)N[C@@H](CCC(N)=O)C(=O)N[C@@H](CC(=O)O)C(=O)N[C@@H](Cc1ccccc1)C(=O)N[C@H](C(=O)N[C@@H](CC(N)=O)C(=O)N[C@@H](Cc1c[nH]c2ccccc12)C(=O)N[C@@H](CC(C)C)C(=O)N[C@@H](CC(C)C)C(=O)N[C@@H](C)C(=O)N[C@@H](CCC(N)=O)C(=O)N[C@@H](CCCCN)C(=O)N1CCC[C@H]1C(=O)N[C@@H](CCCCN)C(=O)N[C@@H](CCCCN)C(=O)N[C@H](C(=O)N[C@@H](CCCNC(=N)N)C(=O)N[C@@H](C)C(=O)N[C@@H](CO)C(N)=O)[C@@H](C)CC)C(C)C)[C@@H](C)CC [Compound 0601GIP4818] | −23, % |  |  | −9%, |
| CC[C@H](C)[C@H](NC(=O)[C@H](CO)NC(=O)[C@H](Cc1ccc(O)cc1)NC(=O)[C@H](CC(=O)O)NC(=O)[C@H](CO)NC(=O)[C@@H](NC(=O)[C@H](Cc1ccccc1)NC(=O)[C@@H](NC(=O)CNC(=O)[C@H](CCC(=O)O)NC(=O)CCNC(=O)[C@@H](N)Cc1ccc(O)cc1)[C@@H](C)O)[C@@H](C)CC)C(=O)N[C@@H](C)C(=O)N[C@@H](CCSC)C(=O)N[C@@H](CC(=O)O)C(=O)N[C@@H](CCCCN)C(=O)N[C@H](C(=O)N[C@@H](Cc1c[nH]cn1)C(=O)N[C@@H](CCC(N)=O)C(=O)N[C@@H](CCC(N)=O)C(=O)N[C@@H](CC(=O)O)C(=O)N[C@@H](Cc1ccccc1)C(=O)N[C@H](C(=O)N[C@@H](CC(N)=O)C(=O)N[C@@H](Cc1c[nH]c2ccccc12)C(=O)N[C@@H](CC(C)C)C(=O)N[C@@H](CC(C)C)C(=O)N[C@@H](C)C(=O)N[C@@H](CCC(N)=O)C(=O)N[C@@H](CCCCN)C(=O)N1CCC[C@H]1C(=O)N[C@@H](CO)C(=O)N[C@@H](CO)C(=O)NCC(=O)N[C@@H](C)C(=O)N1CCC[C@H]1C(=O)N1CCC[C@H]1C(=O)N1CCC[C@H]1C(=O)N[C@@H](CO)C(N)=O)C(C)C)[C@@H](C)CC [0601GIP4458] | −14, 30% |  |  |  |
| CC[C@H](C)[C@H](NC(=O)[C@H](CO)NC(=O)[C@H](Cc1ccc(O)cc1)NC(=O)[C@H](CC(=O)O)NC(=O)[C@H](CO)NC(=O)[C@@H](NC(=O)[C@H](Cc1ccccc1)NC(=O)[C@@H](NC(=O)CNC(=O)[C@H](CC(=O)O)NC(=O)[C@H](C)NC(=O)[C@@H](N)Cc1ccc(O)cc1)[C@@H](C)O)[C@@H](C)CC)C(=O)N[C@@H](C)C(=O)N[C@@H](CCSC)C(=O)N[C@@H](CC(=O)O)C(=O)N[C@@H](CCCCN)C(=O)N[C@H](C(=O)N[C@@H](Cc1c[nH]cn1)C(=O)N[C@@H](CCC(N)=O)C(=O)N[C@@H](CCC(N)=O)C(=O)N[C@@H](CC(=O)O)C(=O)N[C@@H](Cc1ccccc1)C(=O)N[C@H](C(=O)N[C@@H](CC(N)=O)C(=O)N[C@@H](Cc1c[nH]c2ccccc12)C(=O)N[C@@H](CC(C)C)C(=O)N[C@@H](CC(C)C)C(=O)N[C@@H](C)C(=O)N[C@@H](CCC(N)=O)C(=O)N[C@@H](CCCCN)C(=O)N1CCC[C@H]1C(=O)N[C@@H](CCCCN)C(=O)N[C@@H](CCCCN)C(=O)N[C@H](C(=O)N[C@@H](CCCNC(=N)N)C(=O)N[C@@H](Cc1ccc(O)cc1)C(=O)N[C@@H](CO)C(N)=O)[C@@H](C)CC)C(C)C)[C@@H](C)CC [Compound 0601GIP4390] | 1, 30% |  |  |  |
| CC[C@H](C)[C@H](NC(=O)[C@H](CO)NC(=O)[C@H](Cc1ccc(O)cc1)NC(=O)[C@H](CC(=O)O)NC(=O)[C@H](CO)NC(=O)[C@@H](NC(=O)[C@H](Cc1ccccc1)NC(=O)[C@@H](NC(=O)CNC(=O)[C@H](CCC(=O)O)NC(=O)[C@@H](CCC(=O)O)NC(=O)[C@@H](N)Cc1ccc(O)cc1)[C@@H](C)O)[C@@H](C)CC)C(=O)N[C@@H](C)C(=O)N[C@@H](CCSC)C(=O)N[C@@H](CC(=O)O)C(=O)N[C@@H](CCCCN)C(=O)N[C@H](C(=O)N[C@@H](Cc1c[nH]cn1)C(=O)N[C@@H](CCC(N)=O)C(=O)N[C@@H](CCC(N)=O)C(=O)N[C@@H](CC(=O)O)C(=O)N[C@@H](Cc1ccccc1)C(=O)N[C@H](C(=O)N[C@@H](CC(N)=O)C(=O)N[C@@H](Cc1c[nH]c2ccccc12)C(=O)N[C@@H](CC(C)C)C(=O)N[C@@H](CC(C)C)C(=O)N[C@@H](C)C(=O)N[C@@H](CCC(N)=O)C(=O)N[C@@H](CCCCN)C(=O)N1CCC[C@H]1C(=O)N[C@@H](CO)C(=O)N[C@@H](CO)C(=O)NCC(=O)N[C@@H](C)C(=O)N1CCC[C@H]1C(=O)N1CCC[C@H]1C(=O)N1CCC[C@H]1C(=O)N[C@@H](CO)C(N)=O)C(C)C)[C@@H](C)CC [0601GIP4703] | −18, 30% |  |  |  |
| CC[C@H](C)[C@H](NC(=O)[C@H](CO)NC(=O)[C@H](Cc1ccc(O)cc1)NC(=O)[C@H](CC(=O)O)NC(=O)[C@H](CO)NC(=O)[C@@H](NC(=O)[C@H](Cc1ccccc1)NC(=O)[C@@H](NC(=O)CNC(=O)[C@H](CCC(=O)O)NC(=O)[C@H](C)NC(=O)[C@@H](N)Cc1ccc(O)cc1)[C@@H](C)O)[C@@H](C)CC)C(=O)N[C@@H](C)C(=O)N[C@@H](CCSC)C(=O)N[C@@H](CC(=O)O)C(=O)N[C@@H](CCCCN)C(=O)N[C@H](C(=O)N[C@@H](Cc1c[nH]cn1)C(=O)N[C@@H](CCC(N)=O)C(=O)N[C@@H](CCC(N)=O)C(=O)N[C@@H](CC(=O)O)C(=O)N[C@@H](Cc1ccccc1)C(=O)N[C@H](C(=O)N[C@@H](CC(N)=O)C(=O)N[C@@H](Cc1c[nH]c2ccccc12)C(=O)N[C@@H](CC(C)C)C(=O)N[C@@H](CC(C)C)C(=O)N[C@@H](C)C(=O)N[C@@H](CCC(N)=O)C(=O)N[C@@H](CCCCN)C(=O)N[C@H](C(=O)N[C@@H](CO)C(=O)N1CCC[C@H]1C(=O)N[C@@H](CCCNC(=N)N)C(=O)N1CCC[C@H]1C(=O)N1CCC[C@H]1C(=O)N[C@@H](CO)C(=O)N[C@@H](CO)C(N)=O)[C@@H](C)O)C(C)C)[C@@H](C)CC [0601GIP4401] | 1, 30% |  |  |  |
| CC[C@H](C)[C@H](NC(=O)[C@H](CO)NC(=O)[C@H](Cc1ccc(O)cc1)NC(=O)[C@H](CC(=O)O)NC(=O)[C@H](CO)NC(=O)[C@@H](NC(=O)[C@H](Cc1ccccc1)NC(=O)[C@@H](NC(=O)CNC(=O)[C@H](CCC(=O)O)NC(=O)[C@H](C)NC(=O)[C@H](Cc1ccc(O)cc1)NC(=O)[C@@H](N)CC(C)C)[C@@H](C)O)[C@@H](C)CC)C(=O)N[C@@H](C)C(=O)N[C@@H](CCSC)C(=O)N[C@@H](CC(=O)O)C(=O)N[C@@H](CCCCN)C(=O)N[C@H](C(=O)N[C@@H](Cc1c[nH]cn1)C(=O)N[C@@H](CCC(N)=O)C(=O)N[C@@H](CCC(N)=O)C(=O)N[C@@H](CC(=O)O)C(=O)N[C@@H](Cc1ccccc1)C(=O)N[C@H](C(=O)N[C@@H](CC(N)=O)C(=O)N[C@@H](Cc1c[nH]c2ccccc12)C(=O)N[C@@H](CC(C)C)C(=O)N[C@@H](CC(C)C)C(=O)N[C@@H](C)C(=O)N[C@@H](CCC(N)=O)C(=O)N[C@@H](CCCCN)C(=O)N1CCC[C@H]1C(=O)N[C@@H](CCCCN)C(=O)N[C@@H](CCCCN)C(=O)N[C@H](C(=O)N[C@@H](CCCNC(=N)N)C(=O)N[C@@H](Cc1ccc(O)cc1)C(=O)N[C@@H](CO)C(N)=O)[C@@H](C)CC)C(C)C)[C@@H](C)CC [0601GIP4799] | −10, % and −10, 30% |  |  |  |
